Patent US9732075B2, “Benzimidazole-proline derivatives” (IDORSIA PHARMACEUTICALS LTD, priority 2012, dated 2017)

Assays:
human orexin-2 receptor = human orexin-2 receptor (Homo sapiens (Human), UniProt O43614); assay: In vitro assay: intracellular calcium measurements (FLIPR), antagonistic activity; assay type: cell-based; details: CHO cells expressing human orexin-2 receptor, orexin-A agonist, geometric mean, read-out: IC50 Ox2
Summary of the method: (§1)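 Read-out: FLIPR fluo-4 calcium peak height in CHO cells bearing human orexin-1 or orexin-2 receptor, relative to orexin-A (approx. EC70) with vehicle. Antagonist preincubation 120 min; agonist orexin-A at 3 nM final. IC50 possibly normalized to an on-plate reference compound.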

human orexin-1 receptor = human orexin-1 receptor (Homo sapiens (Human), UniProt O43613); assay: as above; assay type: cell-based; details: CHO cells expressing human orexin-1 receptor, orexin-A agonist, geometric mean, read-out: IC50 Ox1
Summary of the method: as §1

Chain of human orexin-2 receptor (O43614 whole entry): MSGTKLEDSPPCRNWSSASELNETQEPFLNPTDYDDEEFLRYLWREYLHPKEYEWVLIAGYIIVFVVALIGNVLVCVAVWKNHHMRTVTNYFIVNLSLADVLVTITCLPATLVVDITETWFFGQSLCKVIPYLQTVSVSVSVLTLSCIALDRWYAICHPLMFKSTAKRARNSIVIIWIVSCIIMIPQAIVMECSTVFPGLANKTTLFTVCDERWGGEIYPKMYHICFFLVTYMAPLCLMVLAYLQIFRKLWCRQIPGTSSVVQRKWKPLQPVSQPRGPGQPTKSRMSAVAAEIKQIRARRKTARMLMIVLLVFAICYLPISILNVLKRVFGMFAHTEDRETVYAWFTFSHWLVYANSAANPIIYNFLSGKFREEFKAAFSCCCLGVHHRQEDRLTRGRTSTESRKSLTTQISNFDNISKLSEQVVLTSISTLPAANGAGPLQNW
Chain of human orexin-1 receptor (O43613 whole entry): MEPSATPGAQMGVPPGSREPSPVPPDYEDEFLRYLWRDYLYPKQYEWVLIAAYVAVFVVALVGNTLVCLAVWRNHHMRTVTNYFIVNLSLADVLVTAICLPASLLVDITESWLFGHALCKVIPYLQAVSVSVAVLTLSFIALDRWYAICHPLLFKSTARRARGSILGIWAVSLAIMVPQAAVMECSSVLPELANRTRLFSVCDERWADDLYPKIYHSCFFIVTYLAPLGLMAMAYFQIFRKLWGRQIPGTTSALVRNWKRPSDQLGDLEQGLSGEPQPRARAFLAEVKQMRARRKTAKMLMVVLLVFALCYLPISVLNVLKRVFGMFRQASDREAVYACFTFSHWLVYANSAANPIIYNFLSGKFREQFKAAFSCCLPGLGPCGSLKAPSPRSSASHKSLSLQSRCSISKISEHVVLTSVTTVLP

| SMILES | IC50 (human orexin-2 receptor) [nM] | IC50 (human orexin-1 receptor) [nM] |
| --- | --- | --- |
| Cc1nc(C(=O)N2CC[C@H](C)[C@H]2c2nc3c(C)cc(Cl)cc3[nH]2)c(-c2ccc(F)cc2)s1 [Ex. 4.100] | 1280 | 6 |
| Cc1ccc(-c2ccc(C)cc2C(=O)N2CCC[C@@]2(C)c2nc3cc(C(F)(F)F)ccc3[nH]2)cc1 [Ex. 5.192] | 88 | 23 |
| COc1ccc2nc([C@@H]3CCCN3C(=O)c3cc(Cl)ccc3-n3nccn3)[nH]c2c1 [Ex. 1.157] | 10 | 419 |
| Cc1nc(C(=O)N2CCCC2c2nc3cc(F)c(Br)cc3[nH]2)c(-c2ccccc2)s1 (stereo not drawn) [Ex. 1.136] | 278 | 81 |
| CSc1cccc2nc([C@@H]3CCCN3C(=O)c3cncnc3-c3ccc(Br)c(Cl)c3)[nH]c12 [Ex. 1.84] | 20 | 14 |
| Cc1nc(C(=O)N2CC[C@H](C)[C@H]2c2nc3c(C)c(C)ccc3[nH]2)c(-c2cccc(Cl)c2)s1 [Ex. 4.24] | 367 | 2 |
| Cc1cc2[nH]c([C@@H]3[C@@H](C)CCN3C(=O)c3c(-n4nccn4)ccc(C)c3F)nc2cc1Cl [Ex. 4.75] | 636 | 8 |
| CSc1ccc2nc([C@@H]3CCCN3C(=O)c3ccc(C)cc3-n3nccn3)[nH]c2c1 [Ex. 1.153] | 3 | 40 |
| Cc1cc(Cl)cc2[nH]c([C@@H]3[C@@H](C)CCN3C(=O)c3ccccc3-n3nccn3)nc12 [Ex. 4.101] | 183 | 18 |
| Cc1ccc(-n2nccn2)c(C(=O)N2CCC[C@@]2(C)c2nc3cc(Cl)c(Cl)cc3[nH]2)c1 [Ex. 5.7] | 29 | 5 |
| Cc1nc(C(=O)N2CCC[C@@]2(C)c2nc3c(C)c(C)c(Br)cc3[nH]2)c(-c2cccc(Cl)c2Cl)s1 [Ex. 5.272] | 12 | 8 |
| Cc1ccc(C(=O)N2CC[C@H](C)[C@H]2c2nc3c(C)c(Cl)ccc3[nH]2)c(-c2ccccn2)c1 [Ex. 4.167] | 144 | 13 |
| Cc1nc(C(=O)N2CCCC2c2nc3cc(Br)cc(C)c3[nH]2)c(-c2cccc(Cl)c2)s1 (stereo not drawn) [Ex. 1.107] | 58 | 28 |
| COc1ccc(-c2ccc(OC(F)(F)F)cc2)c(C(=O)N2CCC[C@@]2(C)c2nc3c(C)c(Cl)ccc3[nH]2)c1F [Ex. 5.306] | 69 | 33 |
| COc1cccc(-c2ccc(C)cc2C(=O)N2CCC[C@@]2(C)c2nc3cc(C(F)(F)F)ccc3[nH]2)c1 [Ex. 5.188] | 119 | 23 |
| COc1ccc2[nH]c(C3CCCN3C(=O)c3cc(C)ccc3-n3nccn3)nc2c1 (stereo not drawn) [Ex. 1.141] | 13 | 507 |
| C[C@@]1(c2nc3cc(C(F)(F)F)ccc3[nH]2)CCCN1C(=O)c1c(F)cccc1-n1nccn1 [Ex. 5.164] | 419 | 104 |
| Cc1nc(C(=O)N2CCCC2c2nc3cc(Cl)ccc3[nH]2)c(-c2cccc(Cl)c2)s1 (stereo not drawn) [Ex. 1.97] | 314 | 95 |
| CSc1ccc2[nH]c([C@@H]3CCCN3C(=O)c3nc(C)ccc3-n3cccn3)nc2c1 [Ex. 1.178] | 96 | 2680 |
| C[C@@]1(c2nc3cc(F)c(Br)cc3[nH]2)CCCN1C(=O)c1c(F)cccc1-n1nccn1 [Ex. 5.123] | 304 | 146 |
| COc1cc2nc([C@@H]3[C@@H](C)CCN3C(=O)c3nc(C)sc3-c3ccc(F)cc3)[nH]c2cc1OC [Ex. 4.54] | 2320 | 21 |
| CO[C@H]1CN(C(=O)c2c(F)cccc2-n2nccn2)C(C)(c2nc3c(C)c(Cl)ccc3[nH]2)C1 (stereo partly drawn) [Ex. 3.42] | 395 | 193 |
| Cc1nc(C(=O)N2CCCC2c2nc3cc(Br)cc(C)c3[nH]2)c(-c2ccccc2)s1 (stereo not drawn) [Ex. 1.131] | 48 | 37 |

| SMILES | IC50 (human orexin-2 receptor) [nM] | IC50 (human orexin-1 receptor) [nM] |
| --- | --- | --- |
| Cc1ccc(-n2cccn2)c(C(=O)N2CCC[C@@]2(C)c2nc3c(C)c(Cl)ccc3[nH]2)n1 [Ex. 5.44] | 29 | 8 |
| COc1cc(C(=O)N2CCC[C@@]2(C)c2nc3cc(C(F)(F)F)c(Cl)cc3[nH]2)c(-n2nccn2)cc1OC [Ex. 5.135] | 49 | 10 |
| COc1cc2nc([C@@H]3[C@@H](C)CCN3C(=O)c3nc(C)sc3-c3cc(F)cc(F)c3)[nH]c2cc1OC [Ex. 4.52] | 1070 | 19 |
| COc1cccc2nc([C@@H]3CCCN3C(=O)c3nc(C)sc3-c3cccc(Cl)c3)[nH]c12 [Ex. 1.11] | 54 | 110 |
| Cc1nc(C(=O)N2CC[C@H](C)[C@H]2c2nc3cc(C#N)ccc3[nH]2)c(-c2cccc(Cl)c2)s1 [Ex. 4.8] | 9930 | 68 |
| Cc1ccc(C(=O)N2CC[C@H](C)[C@H]2c2nc3cc(Cl)c(C)cc3[nH]2)c(-c2ccccc2)c1 [Ex. 4.111] | 110 | 2 |
| Cc1ccc(-c2ccc(F)cc2C)c(C(=O)N2CCC[C@@]2(C)c2nc3cc(C)c(C)cc3[nH]2)c1 [Ex. 5.91] | 1290 | 217 |
| C[C@@]1(c2nc3cc(Cl)c(C(F)(F)F)cc3[nH]2)CCCN1C(=O)c1nc(-c2ccc(F)cc2)sc1-c1ccc(F)cc1 [Ex. 5.291] | 347 | 48 |
| Cc1ccc(-c2ccc(F)cc2C)c(C(=O)N2CCC[C@@]2(C)c2nc3c(C)c(C)ccc3[nH]2)c1 [Ex. 5.108] | 161 | 265 |
| COc1cccc(-c2ccc(OC)c(F)c2C(=O)N2CCC[C@@]2(C)c2nc3c(C)c(Cl)ccc3[nH]2)c1 [Ex. 5.296] | 31 | 25 |
| COc1ccc(-n2nccn2)c(C(=O)N2C[C@H](OC)C[C@H]2c2nc3ccc(OC)cc3[nH]2)c1 [Ex. 3.20] | 40 | 1860 |
| Cc1nc(C(=O)N2CC(F)(F)C[C@H]2c2nc3c(C)c(Cl)ccc3[nH]2)c(-c2ccccc2)s1 [Ex. 2.8] | 51 | 70 |
| COc1cc2nc([C@@H]3[C@@H](C)CCN3C(=O)c3ccccc3-n3cccn3)[nH]c2cc1OC [Ex. 4.56] | 2620 | 283 |
| Cc1ccc(-n2nccn2)c(C(=O)N2CCC[C@@]2(C)c2nc3c(C)cccc3[nH]2)c1 [Ex. 5.6] | 59 | 32 |
| Cc1nc(C(=O)N2CC[C@H](C)[C@H]2c2nc3cc(C)c(C)cc3[nH]2)c(-c2ccc(Cl)cc2)s1 [Ex. 4.87] | 2080 | 4 |
| Cc1cccc2[nH]c([C@]3(C)CCCN3C(=O)c3cc(Cl)ccc3-n3nccn3)nc12 [Ex. 5.49] | 114 | 85 |
| Cc1ccc(-n2nccn2)c(C(=O)N2CC(F)(F)C[C@H]2c2nc3c(C)c(Cl)ccc3[nH]2)c1 [Ex. 2.6] | 59 | 52 |
| Cc1cc2nc([C@]3(C)CCCN3C(=O)c3ccccc3-n3nccn3)[nH]c2cc1C [Ex. 5.61] | 26 | 112 |
| CSc1cccc2nc([C@@H]3CCCN3C(=O)c3nccnc3-c3cccc(C(F)(F)F)c3)[nH]c12 [Ex. 1.73] | 282 | 136 |
| Cc1nc(C(=O)N2CC[C@H](C)[C@H]2c2nc3c(C(F)(F)F)cccc3[nH]2)c(-c2ccc(F)c(F)c2)s1 [Ex. 4.154] | 4800 | 26 |
| Cc1ccc(C(=O)N2CC[C@H](C)[C@H]2c2nc3c(C)cc(Cl)cc3[nH]2)c(-n2nccn2)c1 [Ex. 4.93] | 74 | 4 |
| CSc1cccc2nc([C@@H]3CCCN3C(=O)c3nc(C)sc3-c3cccc(Cl)c3Cl)[nH]c12 [Ex. 1.62] | 197 | 128 |

Further lines, results first:

| IC50 (human orexin-2 receptor) [nM] | IC50 (human orexin-1 receptor) [nM] | SMILES |
| --- | --- | --- |
| 8 | 326 | C=C1C[C@@H](c2nc3cc(C(C)(C)C)ccc3[nH]2)N(C(=O)c2cc(F)ccc2-n2nccn2)C1 [Ex. 6.160] |
| 52 | 477 | C=C1C[C@@H](c2nc3cc(OC)ccc3[nH]2)N(C(=O)c2nccnc2-c2cccc(C)c2)C1 [Ex. 6.6] |
| 47 | 308 | C=C1C[C@@H](c2nc3cc(OC)ccc3[nH]2)N(C(=O)c2cncnc2-c2cccc(C)c2)C1 [Ex. 6.17] |
| 39 | 23 | Cc1ccc(-c2ccc(C)cc2C(=O)N2CCC[C@@]2(C)c2nc3cc(C)c(C)cc3n2CCF)cc1 [Ex. 7.40] |
| 1 | 3 | C=C1C[C@@H](c2nc3c(SC)cccc3[nH]2)N(C(=O)c2nc(C)sc2-c2ccc(C)c(C)c2)C1 [Ex. 6.49] |
| 0.6 | 0.9 | C=C1C[C@@H](c2nc3ccc(Cl)c(C)c3[nH]2)N(C(=O)c2nc(C)sc2-c2cccc(C)c2)C1 [Ex. 6.122] |
| 105 | 649 | C=C1CN(C(=O)c2ccccc2-n2nccn2)C(C)(c2nc3cc(OC)ccc3[nH]2)C1 (stereo not drawn) [Ex. 6.155] |
| 9 | 5 | C=C1C[C@@H](c2nc3cc(OC)ccc3[nH]2)N(C(=O)c2nc(N(C)C)sc2-c2ccc(C)c(C)c2)C1 [Ex. 6.27] |
| 15 | 24 | C=C1C[C@@H](c2nc3cc(Cl)c(C(F)(F)F)cc3[nH]2)N(C(=O)c2cc(C)ccc2-n2cccn2)C1 [Ex. 6.187] |
| 5 | 51 | C=C1C[C@@H](c2nc3cc(C)c(C)cc3[nH]2)N(C(=O)c2ccccc2-n2nccn2)C1 [Ex. 6.194] |
| 32 | 13 | C=C1CN(C(=O)c2nc(C)sc2-c2cccc(C)c2)C(C)(c2nc3cc(OC)ccc3[nH]2)C1 (stereo not drawn) [Ex. 6.143] |
| 2 | 8 | C=C1C[C@@H](c2nc3cc(SC)ccc3[nH]2)N(C(=O)c2nc(C)sc2-c2ccc(C)c(C)c2)C1 [Ex. 6.52] |
| 27 | 19 | COc1cccc(-c2ccc(C)cc2C(=O)N2CCC[C@@]2(C)c2nc3cc(C)c(C)cc3n2CCF)c1 [Ex. 7.51] |
| 32 | 364 | C=C1C[C@@H](c2nc3cccc(C)c3[nH]2)N(C(=O)c2cc(Cl)ccc2-n2nccn2)C1 [Ex. 6.102] |
| 66 | 115 | C=C1C[C@@H](c2nc3cc(Cl)c(C(F)(F)F)cc3[nH]2)N(C(=O)c2ccccc2-n2cccn2)C1 [Ex. 6.188] |
